From ChEMBL document CHEMBL1149902, “Steroidal triglycosides, kurilensosides A, B, and C, and other polar steroids from the Far Eastern starfish Hippasteria kurilensis” (2008)

What was measured:
Type in all cases: functional
Mesocentrotus nudus [1] = test: Inhibition of Strongylocentrotus nudus egg fertilization by Strongylocentrotus nudus sperm
Mesocentrotus nudus [2] = test: Inhibition of Strongylocentrotus nudus egg fertilization by Strongylocentrotus nudus sperm at 13 uM
Mesocentrotus nudus [3] = test: Inhibition of Strongylocentrotus nudus egg fertilization by Strongylocentrotus nudus sperm at 55 uM
Mesocentrotus nudus [4] = test: Inhibition of Strongylocentrotus nudus egg fertilization by Strongylocentrotus nudus sperm at 67 uM

Structure (SMILES): CC(C)[C@@H](O)/C=C/[C@@H](C)[C@H]1C[C@@H](O)C2[C@@]3(O)C(CC[C@@]21C)[C@@]1(C)CC[C@H](O)[C@H](O)C1[C@@H](OS(=O)(=O)[O-])[C@H]3O.[Na+] (stereo partly specified)
- EC100 (Mesocentrotus nudus [1]): 11 ×10⁻⁵ M

Structure (SMILES): CC(C)[C@@H](O)CC[C@@H](C)[C@H]1C[C@H](O)[C@@H]2[C@]1(C)CC[C@H]1[C@@]2(O)C[C@@H](O)C2[C@@H](O)[C@@H](O)CC[C@@]21C (stereo partly specified)
- inhibition at 13 µM (Mesocentrotus nudus [2]): 100%

Structure (SMILES): CO[C@H]1[C@H](O[C@H]2CC[C@@]3(C)C([C@H](O)C[C@@]4(O)[C@@H]5[C@@H](O)C[C@H]([C@H](C)CC[C@H](O[C@@H]6O[C@@H](CO)[C@H](OS(=O)(=O)[O-])[C@H]6O[C@@H]6O[C@@H](CO)[C@H](O)[C@H]6O)C(C)C)[C@@]5(C)CC[C@@H]43)[C@H]2O)OC[C@@H](O)[C@@H]1O.[Na+] (stereo partly specified) [KURILENSOSIDE A]
- EC100 (Mesocentrotus nudus [1]): 8.9 ×10⁻⁵ M

Structure (SMILES): CO[C@H]1[C@H](O[C@H]2CC[C@@]3(C)C([C@H]2O)[C@@H](O)[C@@H](O)[C@@]2(O)[C@@H]4[C@H](O)C[C@H]([C@H](C)CC[C@H](O[C@@H]5O[C@@H](CO[C@H]6OC[C@H](O)[C@@H](O)[C@@H]6O)[C@H](O)[C@H]5O)C(C)C)[C@@]4(C)CC[C@@H]23)OC[C@@H](OC)[C@@H]1O (stereo partly specified) [KURILENSOSIDE B]
- inhibition at 55 µM (Mesocentrotus nudus [3]): 100%

Structure (SMILES): CO[C@H]1[C@H](OC[C@@H]2O[C@@H](O[C@@H](CC[C@@H](C)[C@H]3C[C@@H](O)[C@@H]4[C@]3(C)CC[C@H]3[C@@]4(O)[C@H](O)[C@H](O)C4[C@@H](O)[C@@H](O[C@@H]5OC[C@@H](O)[C@H](O)[C@H]5OC)CC[C@@]43C)C(C)C)[C@H](O)[C@H]2O)OC[C@@H](O)[C@@H]1O (stereo partly specified) [KURILENSOSIDE C]
- inhibition at 55 µM (Mesocentrotus nudus [3]): 100%

Structure (SMILES): CO[C@H]1[C@H](OC[C@@H]2O[C@@H](O[C@@H](CC[C@@H](C)[C@H]3C[C@@H](O)[C@@H]4[C@]3(C)CC[C@H]3[C@@]4(O)C[C@H](O)C4[C@@H](O)[C@@H](O)CC[C@@]43C)C(C)C)[C@H](O)[C@H]2O)OC[C@@H](O)[C@@H]1O (stereo partly specified) [KURILENSOSIDE D]
- inhibition at 67 µM (Mesocentrotus nudus [4]): 100%
